Here are results for eight compounds from PubChem BioAssay AID1259411 (Chemical Carcinogenesis Research Information System (CCRIS), 2018).

Activity calls are given as the source filed them. How the calls were made is not given here.

The test system of this data set is rodent carcinogenicity bioassays, tumor incidence. The data set is described as follows: CCRIS carcinogenicity studies. The gist of the method:
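Archive of carcinogenicity, mutagenicity, tumor promotion and tumor inhibition results drawn from journals, NCI reports and other sources, expert-reviewed; covers 1985-2011 and is no longer updated.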

On to `CCCCC(CC)COS(=O)(=O)O` (stereo not drawn), for which the carcinogen call reads like this: (Species: MOUSE, Strain/Sex: B6C3F1/FEMALE, Route: ORAL, Dose: 0, 10000, 20000 PPM IN DIET FOR 102-104 WK (STUDY DURATION: 102-104 WK), Dose: 0, 10000, 20000 PPM IN DIET FOR 102-104 WK (STUDY DURATION: 102-104 WK), Tumor Site: Type of Lesion: LIVER: CARCINOMA, CARCINOMA OR ADENOMA) “active; positive”; (Species: MOUSE, Strain/Sex: B6C3F1/MALE, Route: ORAL, Dose: 0, 5000, 10000 PPM IN DIET FOR 102-104 WK (STUDY DURATION: 102-104 WK), Dose: 0, 5000, 10000 PPM IN DIET FOR 102-104 WK (STUDY DURATION: 102-104 WK)) “inactive; negative”; (Species: RAT, Strain/Sex: F344/FEMALE, Route: ORAL, Dose: 0, 10000, 20000 PPM IN DIET FOR 102-104 WK (STUDY DURATION: 102-104 WK), Dose: 0, 10000, 20000 PPM IN DIET FOR 102-104 WK (STUDY DURATION: 102-104 WK)) “inactive; negative”; (Species: RAT, Strain/Sex: F344/MALE, Route: ORAL, Dose: 0, 10000, 20000 PPM IN DIET FOR 102-104 WK (STUDY DURATION: 102-104 WK), Dose: 0, 10000, 20000 PPM IN DIET FOR 102-104 WK (STUDY DURATION: 102-104 WK)) “inactive; negative”.

In the case of `Oc1ccc2ccccc2c1N=Nc1ccc(N=Nc2ccccc2)cc1`, the carcinogen call (Species: MOUSE, Strain/Sex: SWISS-WEBSTER/FEMALE, Route: DERMAL, Dose: 0, 1% IN 0.1 ML 0.1% SODIUM LAURYL SULFATE 1/WK FOR 18 MO (STUDY DURATION: 18 MO)) was “inactive; negative” and the carcinogen call (Species: MOUSE, Strain/Sex: SWISS-WEBSTER/MALE, Route: DERMAL, Dose: 0, 1% IN 0.1 ML 0.1% SODIUM LAURYL SULFATE 1/WK FOR 18 MO (STUDY DURATION: 18 MO)) is “inactive; negative”.

In the case of `CCCO`, the carcinogen call by setting is: (Species: DOG, Strain/Sex: BEAGLE/FEMALE, Route: GAVAGE, Dose: 0, 30, 180 MG/KG/D 7 D/WK FOR 52 WK (STUDY DURATION: 52 WK), Dose: 0, 30, 180 MG/KG/D 7 D/WK FOR 52 WK (STUDY DURATION: 52 WK)) “inactive; negative”; (Species: DOG, Strain/Sex: BEAGLE/MALE, Route: GAVAGE, Dose: 0, 30, 180 MG/KG/D 7 D/WK FOR 52 WK (STUDY DURATION: 52 WK), Dose: 0, 30, 180 MG/KG/D 7 D/WK FOR 52 WK (STUDY DURATION: 52 WK)) “inactive; negative”; (Species: MONKEY, Strain/Sex: MACACA ARCTODIES/MALE, Route: ORAL, Dose: 0, 0.25, 2.5, 25 MG/KG 1/D FOR 54 WK (STUDY DURATION: 54 WK), Dose: 0, 0.25, 2.5, 25 MG/KG 1/D FOR 54 WK (STUDY DURATION: 54 WK)) “inactive; negative”; (Species: MOUSE, Strain/Sex: SWISS/FEMALE, Route: GAVAGE, Dose: 0, 50, 500 MG/KG/D FOR 18 MO (STUDY DURATION: 18 MO), Dose: 0, 50, 500 MG/KG/D FOR 18 MO (STUDY DURATION: 18 MO)) “inactive; negative”; (Species: MOUSE, Strain/Sex: SWISS/MALE, Route: GAVAGE, Dose: 0, 50, 500 MG/KG/D FOR 18 MO (STUDY DURATION: 18 MO), Dose: 0, 50, 500 MG/KG/D FOR 18 MO (STUDY DURATION: 18 MO)) “inactive; negative”; (Species: RAT, Strain/Sex: SPRAGUE-DAWLEY/FEMALE, Route: GAVAGE, Dose: 0, 50, 500 MG/KG 1/D FOR 24 MO (STUDY DURATION: 24 MO), Dose: 0, 50, 500 MG/KG 1/D FOR 24 MO (STUDY DURATION: 24 MO)) “inactive; negative”. Moreover, the carcinogen call (Species: RAT, Strain/Sex: SPRAGUE-DAWLEY/MALE, Route: GAVAGE, Dose: 0, 50, 500 MG/KG 1/D FOR 24 MO (STUDY DURATION: 24 MO), Dose: 0, 50, 500 MG/KG 1/D FOR 24 MO (STUDY DURATION: 24 MO)) is “inactive; negative”.

Regarding `COc1cccc2c1cc([N+](=O)[O-])c1c(C(=O)O)cc3c(c12)OCO3`, the carcinogen call (Species: RAT, Strain/Sex: SPRAGUE-DAWLEY/FEMALE, Route: ORAL, GAVAGE, Dose: 50 MG/KG BW/D FOR 3 D (STUDY DURATION: 6 MO), Tumor Site: Type of Lesion: KIDNEY: TUMORS, 29% (THERE WERE 3 MESENCHYMAL TUMORS AND 1 RENAL ONCOCYTOMA IN 14 ANIMALS)) is “active; positive”.

On to `CCOC(=O)NCCOc1ccc(Oc2ccccc2)cc1`, for which the carcinogen call reads like this: (Species: Mouse, Strain/Sex: CD-1/Female (50/Group), Route: Oral, Dose: 0, 30, 110, 420 ppm of 96.6% fenoxycarb in diet for 80 wk, study duration 80 wk, Dose: 0, 30, 110, 420 ppm of 96.6% fenoxycarb in diet for 80 wk, study duration 80 wk) “inactive; negative”; (Species: Mouse, Strain/Sex: CD-1/Male (50/Group), Route: Oral, Dose: 0, 30, 110, 420 ppm of 96.6% fenoxycarb in diet for 80 wk, study duration 80 wk, Dose: 0, 30, 110, 420 ppm of 96.6% fenoxycarb in diet for 80 wk, study duration 80 wk, Tumor Site: Type of Lesion: Lung: alveolar/bronchial adenomas and carcinomas, significant at 420 ppm only) “active; positive”; (Species: Rat, Strain/Sex: Crl:CD(SD)BR/Female (50/Group), Route: Oral, Dose: 0, 200, 600, 1800 ppm of 96.6% fenoxycarb in diet for 104 wk, study duration 104 wk, Dose: 0, 200, 600, 1800 ppm of 96.6% fenoxycarb in diet for 104 wk, study duration 104 wk) “inactive; negative”; (Species: Rat, Strain/Sex: Crl:CD(SD)BR/Male (50/Group), Route: Oral, Dose: 0, 200, 600, 1800 ppm of 96.6% fenoxycarb in diet for 104 wk, study duration 104 wk, Dose: 0, 200, 600, 1800 ppm of 96.6% fenoxycarb in diet for 104 wk, study duration 104 wk) “inactive; negative”.

On to `c1ccc2c(c1)cnc1ccccc12`, for which the carcinogen call by setting is: (Species: RAT, Strain/Sex: SPRAGUE-DAWLEY/FEMALE, Route: SUBCUTANEOUS, Dose: 0, 200 UMOL/KG IN DMSO INTO SUPRASCAPULAR AREA ON DAY 1 OF LIFE FOLLOWED BY 0, 100 UMOL 1/WK AT WK 2-7 THEN 0, 200 UMOL/, Dose: 0, 200 UMOL/KG IN DMSO INTO SUPRASCAPULAR AREA ON DAY 1 OF LIFE FOLLOWED BY 0, 100 UMOL 1/WK AT WK 2-7 THEN 0, 200 UMOL/) “inactive; negative”; (Species: RAT, Strain/Sex: SPRAGUE-DAWLEY/MALE, Route: SUBCUTANEOUS, Dose: 0, 200 UMOL/KG IN DMSO INTO SUPRASCAPULAR AREA ON DAY 1 OF LIFE FOLLOWED BY 0, 100 UMOL 1/WK AT WK 2-7 THEN 0, 200 UMOL/, Dose: 0, 200 UMOL/KG IN DMSO INTO SUPRASCAPULAR AREA ON DAY 1 OF LIFE FOLLOWED BY 0, 100 UMOL 1/WK AT WK 2-7 THEN 0, 200 UMOL/) “inactive; negative”.

As to `COc1ccc([N+](=O)[O-])cc1N`, the carcinogen call runs as follows: (Species: MOUSE, Strain/Sex: B6C3F1/FEMALE, Route: ORAL, Dose: 0, 0.8% IN DIET FOR 78 WK (STUDY DURATION: 97 WK)) “inactive; negative”; (Species: MOUSE, Strain/Sex: B6C3F1/FEMALE, Route: ORAL, Dose: 0, 1.6% IN DIET FOR 15 WK FOLLOWING BY 0.4% FOR LAST 63 WK (STUDY DURATION: 97 WK), Tumor Site: Type of Lesion: LIVER: HEPATOCELLULAR CARCINOMA) “active; positive”; (Species: MOUSE, Strain/Sex: B6C3F1/MALE, Route: ORAL, Dose: 0, 0.8% IN DIET FOR 78 WK (STUDY DURATION: 97 WK), Tumor Site: Type of Lesion: LIVER: HEPATOCELLULAR CARCINOMA) “equivocal”; (Species: MOUSE, Strain/Sex: B6C3F1/MALE, Route: ORAL, Dose: 0, 1.6% IN DIET FOR FIRST 15 WK FOLLOWING BY 0.4% FOR 63 WK (STUDY DURATION: 97 WK)) “inactive; negative”; (Species: RAT, Strain/Sex: F344/FEMALE, Route: ORAL, Dose: 0, 0.4, 0.8% IN DIET FOR 78 WK (STUDY DURATION: 106-108 WK), Dose: 0, 0.4, 0.8% IN DIET FOR 78 WK (STUDY DURATION: 106-108 WK), Tumor Site: Type of Lesion: CLITORAL GLAND: CARCINOMA (NOS), CARCINOMA (NOS) OR SQUAMOUS CELL CARCINOMA, ADENOMA (NOS) OR PAPILLARY ADENOMA OR CARCI) “active; positive”; (Species: RAT, Strain/Sex: F344/MALE, Route: ORAL, Dose: 0, 0.4, 0.8% IN DIET FOR 78 WK (STUDY DURATION: 102-109 WK), Dose: 0, 0.4, 0.8% IN DIET FOR 78 WK (STUDY DURATION: 102-109 WK), Tumor Site: Type of Lesion: INTEGUMENTARY SYSTEM (SKIN): BASAL CELL CARCINOMA, TRICHOEPITHELIOMA;INTEGUMENTARY SYSTEM (EXCLUDING SKIN OF EAR): SQUAM) “active; positive”.

On to `COc1ccccc1O`, for which the carcinogen call by setting is: (Species: RAT, Strain/Sex: SPRAGUE-DAWLEY/FEMALE, Route: GAVAGE, Dose: 0, 20, 50, 200 MG/KG/D IN 0.5% CARBOXYMETHYLCELLULOSE SUSPENSION FOR 103 WK (STUDY DURATION: 103 WK), Dose: 0, 20, 50, 200 MG/KG/D IN 0.5% CARBOXYMETHYLCELLULOSE SUSPENSION FOR 103 WK (STUDY DURATION: 103 WK)) “inactive; negative”; (Species: RAT, Strain/Sex: SPRAGUE-DAWLEY/MALE, Route: GAVAGE, Dose: 0, 20, 50, 200 MG/KG/D IN 0.5% CARBOXYMETHYLCELLULOSE SUSPENSION FOR 103 WK (STUDY DURATION: 103 WK), Dose: 0, 20, 50, 200 MG/KG/D IN 0.5% CARBOXYMETHYLCELLULOSE SUSPENSION FOR 103 WK (STUDY DURATION: 103 WK)) “inactive; negative”.
